Source: publication PMC11133798, “Vosoritide treatment for children with hypochondroplasia: a phase 2 trial” (eClinicalMedicine, 2024)

Legend:
Type in all cases: in vivo, human
[1] = test system: children with hypochondroplasia; assay: Phase 2 trial secondary outcomes: bone age, sitting height ratio, arm span minus height
Protocol: (§1) Secondary outcomes included the change in body proportions as measured by sitting height to standing height ratio and arm span minus standing height, as well as the change in bone age to chronological age ratio after 12 months of therapy. Sitting height was measured three times at each visit using a sitting height table. The average of the three values was used. Sitting height to standing height ratio and arm span minus standing height were standardized for age and sex using available reference data and SDS were calculated.[11]^,[12] Bone age X-rays were read by a single reviewer who was blinded to participant ID, age and time point. Exploratory endpoints included pharmacokinetic parameters, pharmacodynamic markers including collagen X biomarker (CXM) levels and urine cGMP production, and changes in quality of life as measured by the QoLISSY scale.[13] CXM levels in serum were measured in duplicate via an ELISA assay at the Shriners Hospitals for Children in Portland, Oregon as previously described.[14] The average of the two values was used for analysis. Urine samples were obtained for cGMP measurement at baseline and 60, 120, and 240 min after vosoritide injections at the Day 1, Month 6 and Month 12 visits. cGMP levels were assayed at ICON Laboratories (Farmingdale, NY) and were normalized to urine creatinine levels at each time point.
(§2) No formal power calculations were done for this proof of principle study. Sample size was determined based on logistical feasibility. Medication adherence was calculated using the number of returned empty vials divided by the number of days of prescribed therapy. Demographics and clinical characteristics were summarized with mean and standard deviation (SD), median and interquartile (IQR) for numerical variables, frequency and proportion for categorical variables. Primary and secondary clinical outcomes were summarized with mean (SD) for the 6-month observation period and the 12-month treatment period. Paired t-tests were carried out to compare the difference between the treatment and observation periods. The corresponding p-value and 95% confidence interval (CI) were reported. Box and whisker plots were used for both primary endpoints (annualized growth velocity and height SDS) and exploratory endpoints (CXM and cGMP) to visualize the trends for the change from baseline to each of the follow-up visits. Safety data (AEs) were summarized as count and percentage of patients as well as the number of total occurrences per each listed AE for the observation period and the treatment period, respectively. As exploratory analyses, the primary endpoints were stratified based on age, baseline growth velocity and baseline height SDS. The summaries of mean (SD) for each visit, mean differences between treatment and observation periods, and the corresponding p-value and 95% CI were all reported. Parent reported quality of life using the QoLISSY scale was also reported with a similar tabular format. Data were analyzed using SAS for Windows version 9.4 (SAS Institute Inc., Cary, NC). A two-sided test with a significance level of 0.05 was used for all hypothesis tests.

[2] = test system: collagen X biomarker (CXM); assay: Serum collagen X biomarker (CXM) by ELISA
Protocol: as §1

[3] = test system: children with hypochondroplasia; assay: Parent-reported quality of life, QoLISSY scale
Protocol: as §1, §2

Sequence: PGQEHPNARKYKGANKKGLSKGCFGLKLDRIGSMSGLGC (disulfide) [vosoritide, recombinant 39-amino-acid C-type natriuretic peptide analog expressed in E. coli, cyclic by an intramolecular disulfide bond]
- Bone age, Month 12 ([1]; 15 μg/kg/day SC, mean (SD), Day 1 61.42 (30.40), single blinded reader, SD): 71.58 (32.17) months
- Bone age, change during treatment period ([1]; Day 1 to Month 12, mean (95% CI), p<0.0001): 10.17 (7.03, 13.31) months
- Bone age/chronological age, change during treatment period ([1]; Day 1 to Month 12, mean (95% CI), p=0.67): 0.01 (−0.03, 0.05)
- Sitting height ratio unadjusted, change during treatment period ([1]; Day 1 to Month 12, mean (95% CI), observation period −0.001 (−0.003, 0.001)): −0.009 (−0.01, −0.006)
- Arm span minus height unadjusted, change during treatment period ([1]; Day 1 to Month 12, mean (95% CI), observation period −0.66 (−1.72, 0.40)): −0.76 (−1.55, 0.04)
- Bone age/chronological age, Month 12 ([1]; mean (SD), Day 1 0.78 (0.14), SD): 0.79 (0.15)
- Arm span minus height unadjusted, Month 12 ([1]; mean (SD), Day 1 −6.26 (2.83), protocol: measurements in centimeters, SD): −7.01 (3.21)
- Sitting height ratio unadjusted, Month 12 ([1]; sitting height/standing height, mean (SD), Day 1 0.63 (0.02), SD): 0.62 (0.02)
- CXM levels, Month 6 versus Month 12 visit ([2]; n=24, on treatment): no significant differences
- CXM, Month 12 ([2]; serum, ELISA in duplicate, 15 μg/kg/day SC, mean (SD), Day 1 22.48 (6.49), SD): 41.62 (15.86) ng/ml
- Overall or domain specific parental-reported quality of life (QoLISSY) ([3]; 12 months of treatment): no significant changes
- QoLISSY Coping, change during treatment period ([3]; mean, 95% CI (-7.29, 3.75), p=0.51): -1.77
- QoLISSY Belief, change during treatment period ([3]; mean, 95% CI (-9.30, 10.39), p=0.91): 0.54
- QoLISSY Physical, change during treatment period ([3]; mean, 95% CI (-10.25, 7.47), p=0.75): -1.39
- QoLISSY Total (Social, Emotional, Coping), change during treatment period ([3]; mean, 95% CI (-10.55, 4.09), p=0.37): -3.23
- QoLISSY Emotional, change during treatment period ([3]; mean, 95% CI (-12.12, 3.01), p=0.23): -4.56
- QoLISSY Social, change during treatment period ([3]; mean, 95% CI (-12.43, 4.96), p=0.38): -3.74
- QoLISSY Total (Social, Emotional, Coping), Month 6 ([3]; parent-reported, mean, SD (16.08), Day 1 60.33 (18.99)): 61.73
- QoLISSY Treatment, Month 12 ([3]; parent-reported, mean, SD (16.43)): 38.23
- QoLISSY Total (Social, Emotional, Coping), Month 12 ([3]; parent-reported, mean, SD (17.99)): 57.10
- QoLISSY Treatment, Month 6 ([3]; parent-reported, mean, SD (18.36)): 37.86
- QoLISSY Emotional, Month 12 ([3]; parent-reported, mean, SD (18.44)): 62.37
- QoLISSY Coping, Month 12 ([3]; parent-reported, mean, SD (18.71)): 35.79
- QoLISSY Physical, Month 6 ([3]; parent-reported, mean, SD (18.77), Day 1 52.60 (18.22)): 55.38
- QoLISSY Social, Month 6 ([3]; parent-reported, mean, SD (19.50), Day 1 61.46 (21.05)): 61.20
- QoLISSY Physical, Month 12 ([3]; parent-reported, mean, SD (20.09)): 51.22
- QoLISSY Emotional, Month 6 ([3]; parent-reported, mean, SD (20.12), Day 1 66.93 (22.25)): 68.62
- QoLISSY Social, Month 12 ([3]; parent-reported, mean, SD (20.40)): 57.72
- QoLISSY Coping, Month 6 ([3]; parent-reported, mean, SD (20.45), Day 1 38.14 (19.61)): 35.61
- QoLISSY Belief, Month 12 ([3]; parent-reported, mean, SD (22.98)): 66.93
- QoLISSY Belief, Month 6 ([3]; parent-reported, mean, SD (29.10), Day 1 65.22 (28.63)): 62.23
